Reference: patent US9562066B2, “Oral therapy of necrotizing enterocolitis” (University of Pittsburgh—of the Commonwealth System of …, priority 2012, dated 2017)

Key:
NFκB = NFκB activation in intestinal mucosa of NFκB-GFP transgenic newborn mice with mNEC, confocal microscopy; format: in vivo, mouse; settings: mNEC mice vs saline-treated mNEC, FIG. 4A-D
From the text: FIG. 4A-D. Confocal microscopy showing extent of NFκB activation in intestinal mucosa of newborn transgenic mice that express NFκB-GFP. Nuclei are indicated by areas of blue fluorescence. NFκB is detected by a red fluorescent anti-GFP antibody, and is more punctate. Newborn mice were either (A) BF controls treated with saline; (B) mNEC mice treated with saline; or (C) mNEC mice treated with CpG-2. (D) is graphical depiction of results, showing the relative red (GFP) pixel intensity for each animal.
A murine model for NEC (“mNEC”) was produced in newborn mice by 4 days of hypoxia and formula gavage (52), which leads to the induction of iNOS, reduced enterocyte proliferation, and disruption of the ileal mucosa (“mNEC” mice) as compared to control mice that were allowed to breast feed (“BF” mice”). Specifically, mNEC was induced in 10-d-old mice (12) using formula gavage [Similac Advance infant formula (Abbott Nutrition):Esbilac canine milk replacer, 2:1] 50 μL/g body weight, five times per day for 4 d, and hypoxia (5% O2, 95% N2) administered for 10 min twice daily for 4 d using a hypoxia chamber (Billups-Rothenberg Inc.). CpG-1 was […]-3′ (SEQ ID NO:6), containing phosphorothioate linkages, known in the art as CpG ODN 1826 (Coley Pharmaceutical Group, Ottawa, Ontario, Canada (Pfizer)). CpG-2 was 5′ […] 3′ (SEQ ID NO:9). […]

[1] = tested on: murine model for NEC (mNEC); test: Murine model for NEC (mNEC), oral CpG-ODN during induction (Example 1); format: in vivo, mouse; settings: for gross morphology: mNEC mice treated orally vs untreated mNEC mice, FIG. 5; for expression of TNFα in the intestines (quantitative RT-PCR) / disruption of the small intestine mucosa (H&E histology): mNEC mice; for expression of TNFα in the intestines (quantitative RT-PCR): oral 1 mg/kg twice per day in formula, day 4 after mNEC induction, FIG. 1; for disruption of the small intestine mucosa (H&E histology): FIG. 2A-F; for body weight: treated vs untreated mNEC mice
Method: (§1) A murine model for NEC (“mNEC”) was produced in newborn mice by 4 days of hypoxia and formula gavage (52), which leads to the induction of iNOS, reduced enterocyte proliferation, and disruption of the ileal mucosa (“mNEC” mice) as compared to control mice that were allowed to breast feed (“BF” mice”). Specifically, mNEC was induced in 10-d-old mice (12) using formula gavage [Similac Advance infant formula (Abbott Nutrition):Esbilac canine milk replacer, 2:1] 50 μL/g body weight, five times per day for 4 d, and hypoxia (5% O2, 95% N2) administered for 10 min twice daily for 4 d using a hypoxia chamber (Billups-Rothenberg Inc.). CpG-1 was […]-3′ (SEQ ID NO:6), containing phosphorothioate linkages, known in the art as CpG ODN 1826 (Coley Pharmaceutical Group, Ottawa, Ontario, Canada (Pfizer)). CpG-2 was 5′ […] 3′ (SEQ ID NO:9). CpG-1 or CpG-2 was administered at a dose of 1 mg/kg at a frequency of twice per day in the infant formula described above. Oral administration to breast-fed and NEC animals was achieved by gavage with a silastic foam tipped angiocatheter.
Quantitative RT-PCR was used to assess the effects of orally administered CpG-1 or CpG-2 on expression of the inflammatory cytokine tumor necrosis factor alpha (TNFα) in mNEC versus BF mice. Measurements were made on day 4 after mNEC induction. […] This effect was reflected by histologic evaluation, as depicted in FIG. 2A-F, where the disruption of the small intestine mucosa observed in untreated mNEC mice (FIG. 2B) is ameliorated in mNEC mice orally treated with CpG-1 or CpG-2 (FIGS. 2C and 2D, respectively) to resemble the mucosa of BF control (FIG. 2A).

[2] = tested on: TLR4-mediated inflammation in human ex vivo intestinal tissue; test: LPS-induced (TLR4-mediated) inflammation in human ex vivo control and NEC intestinal tissue, qRT-PCR; format: cell-based; settings: CpG 1 uM, LPS 50 ug/ml 3 hours
Method: (§2) The effect of CpG-ODN 5′-[…]-3′ (SEQ ID NO:6; ODN 1826) on inhibiting NEC in a murine NEC model in vivo, and in ex vivo human samples from infants undergoing intestinal resection for active NEC or at the time of stoma closure was examined. To determine the level of NEC inhibition, the extent of LPS signaling was determined by the degree of expression of pro-inflammatory cytokines iNOS and TNFα by Quantitative real-time PCR (qRT-PCR).
All human tissue was obtained and processed as discarded tissue via waiver of consent with approval from the University of Pittsburgh Institutional Review Board and in accordance with the University of Pittsburgh anatomical tissue procurement guidelines. Human tissue was obtained from infants undergoing intestinal resection for active NEC or at the time of stoma closure (healed NEC at the time of stoma closure). After initial review by the duty pathologist to ensure that adequate diagnostic information was obtained from the gross tissue specimen, the intestinal resection was divided into multiple pieces, and treated in triplicate with media alone, LPS 50 ug/ml, CpG (1 uM) alone or LPS+CpG as described by Neal et al. (55). After 3 hours of treatment, tissue was processed for qRT-PCR, and assessed for the expression of IL1β, TLR4, iNOS or IL-6.
(§3) The extent of LPS signaling was determined by the degree of pro-inflammatory cytokines, iNOS, and TNFα by Quantitative real-time PCR (qRT-PCR). qRT-PCR was performed using the Bio-Rad CFX96 Real-Time System (Biorad, Hercules, Calif.) using the primers listed in the table below.

[3] = tested on: experimental NEC in neonatal mice; test: Experimental NEC in neonatal mice (formula feeding and hypoxia), oral CpG (Example 2); format: in vivo, mouse
Method: as §2
Committee of the University of Pittsburgh. Swiss Webster mice were obtained from Charles River Laboratories. NEC was induced in 7-10 day old mice as described by Leaphart et al. (21) and Afrazi et al. (54) using formula gavage (a 2:1 ratio of Similac Advance infant formula (Ross Pediatrics):Esbilac canine milk replacer) administered five times/day, along with hypoxia (5% O2, 95% N2) for 10 min in a hypoxic chamber (Billups-Rothenberg, Inc., Del Mar, Calif.) twice daily, for 4 days. This protocol results in the development of patchy necrosis involving the small intestine, which is similar to human NEC, with an increase in circulating cytokines that mimics that observed in human NEC (40). CpG was administered via the oral route at a concentration of 1 mg/kg/day, which included […] of pretreatment prior to the start of the NEC model. Disease severity was determined on histological sections of the terminal ileum by a pediatric pathologist blinded to the study condition according to a scoring system from 0 (normal) to 3 (severe), as described by Leaphart et al. (21).
as §3
Statistical analysis was performed using SPSS 13.0 software. ANOVA was used for comparisons for experiments involving more than two experimental groups. Two-tailed student's t-test was used for comparison for experiments consisting of two experimental groups. For analysis of the severity of NEC, chi-square analysis was performed.

[4] = tested on: murine model for NEC (mNEC); test: Pre-treatment with CpG-1 48 hours prior to attempted induction of mNEC; format: in vivo, mouse; settings: administered 48 hours prior to attempted induction of mNEC
Method: FIG. 6A-C. Effects of pre-treatment of mice prior to induction of NEC. (A) Mucosal iNOS expression (as measured by RT-PCR) in BF controls, untreated mNEC animals, mice pre-treated with CpG-1 for 48 hours prior to attempted induction of NEC (“mNEC Cpg1”) and BF mice treated with CpG-1 for 48 hours. (B) Mucosal TNFα expression (as measured by RT-PCR) in BF controls, untreated mNEC animals, mice pre-treated with CpG-1 for 48 hours prior to attempted induction of NEC (“mNEC Cpg1”) and BF mice treated with CpG-1 for 48 hours. (C) Weight at the time of euthanasia of BF controls, untreated mNEC animals, mice pre-treated with CpG-1 for 48 hours prior to attempted induction of NEC (“mNEC Cpg1”) and BF mice treated with CpG-1 for 48 hours.
as §1

[5] = control tissue (healed NEC at stoma closure), FIG. 8A

Substance	nuclear localization of NFκB (punctate red fluorescence) (NFκB)	disease severity ([1]; mNEC animals, oral treatment, FIG. 3A)	gross morphology [1]	expression of TNFα in the intestines (quantitative RT-PCR) [1]	disruption of the small intestine mucosa (H&E histology) ([1]; oral treatment)	body weight [1]	LPS-induced increase in expression of IL1β (qRT-PCR) [2, 5]	LPS-induced increase in expression of TLR4 (qRT-PCR) [2, 5]	LPS-induced expression of IL-6 (qRT-PCR) ([2]; human NEC tissue, FIG. 8B)	LPS-induced expression of iNOS (qRT-PCR) ([2]; human NEC tissue, FIG. 8B)	expression of iNOS in the intestinal mucosa (qRT-PCR) ([3]; oral 1 mg/kg, formula-fed NEC mice, FIG. 7B(i), p<0.05 FF+CpG vs FF)	expression of IL-6 in the intestinal mucosa (qRT-PCR) ([3]; oral 1 mg/kg, formula-fed NEC mice, FIG. 7B(ii), p<0.05 FF+CpG vs FF)	NEC severity score ([3]; oral 1 mg/kg, score 0 (normal) to 3 (severe), FIG. 7B(iii))	intestinal inflammation (ileum photomicrographs and gross images) ([3]; oral 1 mg/kg/day incl. 4 days pretreatment, formula-fed NEC mice, FIG. 7A)	inducible nitric oxide synthase (iNOS) level (qRT-PCR) ([1]; mNEC mice versus BF controls, oral CpG, FIG. 3B)	mucosal expression of iNOS (RT-PCR) ([4]; FIG. 6A)	mucosal expression of TNFα (RT-PCR) ([4]; FIG. 6B)	weight at the time of euthanasia ([4]; FIG. 6C)
CpG-2: CpG-ODN 5′ TCGTCGTTTTGTCGTTCCTGACGTT 3′ (SEQ ID NO:9) (listed as DNA, chemistry not given here)	largely absent	trended towards but did not reach statistical significance	much more robust	brought the levels of TNFα in mNEC animals down to approach the level in BF controls	ameliorated	higher body weight	–	–	–	–	–	–	–	–	–	–	–	–
CpG ODN 1826 [CpG-1]	–	–	much more robust	brought the levels of TNFα in mNEC animals down to approach the level in BF controls	ameliorated	higher body weight	reduced	reduced	reduced	reduced	reduced	reduced	reduced	attenuates intestinal inflammation	substantially reduced	reduced almost to baseline levels	reduced almost to baseline levels	approached controls
